Data reported in ChEMBL document CHEMBL4477179, “Wewakazole B, a Cytotoxic Cyanobactin from the Cyanobacterium Moorea producens Collected in the Red Sea” (J Nat Prod, 2016).
Active and inactive are the calls of the source. No cut-off for these calls is given here. *1 amine or outer side, *2 acyl side, *3 side chain or, on linkers, in order; H or OH if unused. Where a SMILES comes first, the peptide text is derived from it. [ ]: non-standard residue; d: D form. X1 = Cc1oc([C@H](Cc2ccccc2)N[*:1])nc1C(=O)[*:2]; X3 = CC[C@H](C)[C@H](N[*:1])c1nc(C(=O)[*:2])co1; X2 = Cc1oc([C@H](C)N[*:1])nc1C(=O)[*:2]

Experiments:
[1] = Metal chelating activity assessed as Fe3+ complex formation measured after 45 mins by CAS assay; type: functional
[2] = Metal chelating activity assessed as Fe3+ complex formation at 89 uM measured after 45 mins by CAS assay; type: functional
MCF7 = assay: Cytotoxicity against human MCF7 cells measured after 72 hrs by MTT assay; type: functional, cell-based; details: MCF7, 72 h
NCI-H460 = assay: Cytotoxicity against human NCI-H460 cells measured after 72 hrs by MTT assay; type: functional, cell-based; details: NCI-H460, 72 h

| Structure (SMILES) | IC50 [1] | Activity [2] | IC50 (MCF7) | IC50 (NCI-H460) |
| --- | --- | --- | --- | --- |
| CC(=O)N(O)CCCCCNC(=O)CCC(=O)N(O)CCCCCNC(=O)CCC(=O)N(O)CCCCCN [DEFEROXAMINE] | 5.1 µM | – | – | – |
| CC[C@H](C)[C@@H]1NC(=O)[C@@H]2CCCN2C(=O)[C@H](Cc2ccccc2)NC(=O)c2nc(oc2C)[C@H](C)NC(=O)c2nc(oc2C)[C@H](Cc2ccccc2)NC(=O)CNC(=O)[C@@H]2CCCN2C(=O)[C@@H]2CCCN2C(=O)[C@H](C)NC(=O)c2coc1n2 (cyclo(APPG[X1][X2]FP[X3])) | – | inactive | 0.58 µM | 1 µM |
